# Measured values: BindingDB's records for doi:10.1016/j.bmcl.2006.08.053 (Merck Research Laboratories, 2006)
# pEC50: −log10 of the molar value.
# Assay: Release of camptothecin-induced cell cycle arrest in NCI-H1299 cells mediated by CHEK1 inhibition
row,pEC50,Structure (SMILES)
1,6.06,"O=c1[nH]c2ccc(-n3nccn3)cc2cc1-c1cc2cc(CN3CCCCC3)ccc2[nH]1 [3-(5-(piperidin-1-ylmethyl)-1H-indol-2-yl)-6-(2H-1,2,3-triazol-2-yl)quinolin-2(1H)-one]"
2,6.89,Cn1cc(-c2ccc3[nH]c(=O)c(-c4cc5cc(CN6CCCCC6)ccc5[nH]4)cc3c2)cn1 [6-(1-methyl-1H-pyrazol-4-yl)-3-(5-(piperidin-1-ylmethyl)-1H-indol-2-yl)quinolin-2(1H)-one]
3,5.89,Cn1nnc(-c2ccc3[nH]c(=O)c(-c4cc5cc(CN6CCCCC6)ccc5[nH]4)cc3c2)n1 [6-(2-methyl-2H-tetrazol-5-yl)-3-(5-(piperidin-1-ylmethyl)-1H-indol-2-yl)quinolin-2(1H)-one]
4,6.64,"O=c1[nH]c2ccc(-n3ccnn3)cc2cc1-c1cc2cc(CN3CCCCC3)ccc2[nH]1 [3-(5-(piperidin-1-ylmethyl)-1H-indol-2-yl)-6-(1H-1,2,3-triazol-1-yl)quinolin-2(1H)-one]"
5,< 5.00,COc1cc(-c2ccc3[nH]c(=O)c(-c4cc5cc(CN6CCCCC6)ccc5[nH]4)cc3c2)ccc1O [6-(4-hydroxy-3-methoxyphenyl)-3-(5-(piperidin-1-ylmethyl)-1H-indol-2-yl)quinolin-2(1H)-one]
6,5.94,COCC(=O)N1CCN(Cc2ccc3[nH]c(-c4cc5cc(-c6cn[nH]c6)ccc5[nH]c4=O)cc3c2)CC1 [3-(5-((4-(2-methoxyacetyl)piperazin-1-yl)methyl)-1H-indol-2-yl)-6-(1H-pyrazol-4-yl)quinolin-2(1H)-one]

# The remaining lines, values behind:
row,Structure (SMILES),pEC50
1,"N#Cc1ccc2[nH]c(=O)c(-c3cc4cc(CN5CCC(CN)CC5)ccc4[nH]3)cc2c1 [3-(5-((4-(aminomethyl)piperidin-1-yl)methyl)-1H-indol-2-yl)-2-oxo-1,2-dihydroquinoline-6-carbonitrile]",5.43
2,"NC(=O)c1ccc2[nH]c(=O)c(-c3cc4cc(CN5CCCCC5)ccc4[nH]3)cc2c1 [2-oxo-3-(5-(piperidin-1-ylmethyl)-1H-indol-2-yl)-1,2-dihydroquinoline-6-carboxamide]",6.28
3,O=c1[nH]c2ccc(-c3cc[nH]n3)cc2cc1-c1cc2cc(CN3CCCCC3)ccc2[nH]1 [3-(5-(piperidin-1-ylmethyl)-1H-indol-2-yl)-6-(1H-pyrazol-3-yl)quinolin-2(1H)-one],6.60
4,"NCC1CCN(Cc2ccc3[nH]c(-c4cc5cc(C(N)=O)ccc5[nH]c4=O)cc3c2)CC1 [3-(5-((4-(aminomethyl)piperidin-1-yl)methyl)-1H-indol-2-yl)-2-oxo-1,2-dihydroquinoline-6-carboxamide]",5.41
5,O=c1[nH]c2ccc(-c3cn[nH]c3)cc2cc1-c1cc2cc(CN3CCC(F)CC3)ccc2[nH]1 [3-(5-((4-fluoropiperidin-1-yl)methyl)-1H-indol-2-yl)-6-(1H-pyrazol-4-yl)quinolin-2(1H)-one],6.92
6,O=c1[nH]c2ccc(-n3ccnc3)cc2cc1-c1cc2cc(CN3CCCCC3)ccc2[nH]1 [6-(1H-imidazol-1-yl)-3-(5-(piperidin-1-ylmethyl)-1H-indol-2-yl)quinolin-2(1H)-one],6.49
7,O=c1[nH]c2ccc(-c3cccc(O)c3)cc2cc1-c1cc2cc(CN3CCCCC3)ccc2[nH]1 [6-(3-hydroxyphenyl)-3-(5-(piperidin-1-ylmethyl)-1H-indol-2-yl)quinolin-2(1H)-one],5.20
8,O=c1[nH]c2ccc(Br)cc2cc1-c1cc2cc(CN3CCCCC3)ccc2[nH]1 [6-bromo-3-(5-(piperidin-1-ylmethyl)-1H-indol-2-yl)quinolin-2(1H)-one],6.34
9,CC(=O)N1CCN(Cc2ccc3[nH]c(-c4cc5cc(-c6cn[nH]c6)ccc5[nH]c4=O)cc3c2)CC1 [3-(5-((4-acetylpiperazin-1-yl)methyl)-1H-indol-2-yl)-6-(1H-pyrazol-4-yl)quinolin-2(1H)-one],6.06
10,O=c1[nH]c2ccc(-c3cnsc3)cc2cc1-c1cc2cc(CN3CCCCC3)ccc2[nH]1 [6-(isothiazol-4-yl)-3-(5-(piperidin-1-ylmethyl)-1H-indol-2-yl)quinolin-2(1H)-one],6.72
11,CC(=O)N1CCN(Cc2ccc3[nH]c(-c4cc5cc(-c6cnn(C)c6)ccc5[nH]c4=O)cc3c2)CC1 [3-(5-((4-acetylpiperazin-1-yl)methyl)-1H-indol-2-yl)-6-(1-methyl-1H-pyrazol-4-yl)quinolin-2(1H)-one],6.38
12,O=c1[nH]c2ccc(-c3cn[nH]c3)cc2cc1-c1cc2cc(CN3CCCCC3)ccc2[nH]1,7.01
13,O=c1[nH]c2ccc(-c3cn[nH]c3)cc2cc1-c1cc2cc(CN3CCOCC3)ccc2[nH]1 [3-(5-(morpholinomethyl)-1H-indol-2-yl)-6-(1H-pyrazol-4-yl)quinolin-2(1H)-one],6.77
14,"N#Cc1ccc2[nH]c(=O)c(-c3cc4cc(CN5CCCCC5)ccc4[nH]3)cc2c1 [2-oxo-3-(5-(piperidin-1-ylmethyl)-1H-indol-2-yl)-1,2-dihydroquinoline-6-carbonitrile]",6.77
